Assay: Membrane permeability and transport characteristics (Caco-2 Transwell)
Format: in vitro ADME
Details: human, pH 7.4; for efflux ratio at 2 h, 10 μM: Caco-2, Papp (B-A)/Papp (A-B); for Papp A→B at 2 h, 10 μM: Caco-2, apical to basal; for Papp B→A at 2 h, 10 μM: Caco-2, basal to apical
Protocol: The membrane permeability and transport characteristics of the compounds of the present disclosure were determined by the following experimental method.
• 1. Caco-2 cells (ATCC) • 2. HEPES (Solarbio 804D049), penicillin/streptomycin (Solarbio 20200109) and PBS (Solarbio 20200620) • 3. Fetal bovine serum (FBS) (Sigma WXBD0055V), fluorescein (Sigma MKCJ3738) and NaHCO3 (Sigma SLBZ4647) • 4. Hank's balanced salt solution (HBSS) (Gibco 2085528), non-essential amino acid (NEAA) (Gibco 2211548) and Trypsin/EDTA (Gibco 2120732) • 5. High glucose DMEM (Corning 20319014) • 6. HTS Transwell-96 Well Permeable (Corning, 3391) • 7. Resistance tester (Millipore, Millicell® ERS-2) • 8. Cellometer® Vision (Nexcelom Bioscience) • 9. Infinite 200 PRO microplate reader (Tecan, Infinite M200PRO) • 10. Positive control compounds metoprolol (Sinopharm 100084-201403), erythromycin (MCE 84550) and cimetidine (Sinopharm 100158-201406) • 11. ABI QTrap 5500 liquid chromatography-mass spectrometry
• 1) Transport buffer (HBSS containing 25 mM HEPES, pH 7.4) was prepared: 5.958 g of HEPES and 0.35 g of NaHCO3 were accurately weighed, 900 mL of pure water was added to dissolve same, then 100 mL of 10×HBSS was added, uniform stirring was performed, the pH was adjust to 7.4, and filtering was performed. • 2) Caco-2 cell culture medium was prepared: FBS, penicillin/streptomycin, kanamycin and NEAA were added to high glucose DMEM (containing L-glutamine) medium to prepare a cell culture medium containing 10% FBS, 100 U/mL penicillin/0.1 mg/mL streptomycin, 0.6 μg/mL kanamycin and 1×NEAA. • 3) Cells were cultured in T-75 culture flasks in an incubator at 37° C. and 5% CO2, and the medium was discarded when the cell growth density reached 80-90%. The cells were rinsed with 5 mL of PBS, 1.5 mL of Trypsin/EDTA was added, then the cells were incubated in an incubator at 37° C. for 5-10 min until the cells fell off in the form of quicksand, and finally Trypsin/EDTA was neutralized with an FBS-containing medium. 4) The cell suspension was centrifuged at 120 g for 10 min, and the supernatant was discarded. • 5) The cell culture medium was added to re-suspend the cells to obtain a cell suspension with a density of […] cells/mL.
• 1) 50 μL of medium was added to each well of Transwell chamber, and 25 mL of medium was added to the lower layer. The Transwell chamber was preheated in an incubator at 37° C. and 5% CO2 for 1 h. • 2) 50 μL of the cell suspension was added to each well of the preheated Transwell chamber to a final seeding density of 2.4×10^5 cells/cm. • 3) The cells were cultured for 14-18 days, the medium was changed every other day, and the medium was changed within 48 h after the initial seeding in the plate. The medium must be changed one day before the experiment.
• 1) After 14 days of cell culture, the cells were fused and differentiated, ready for transport experiment. • 2) The resistance of monolayer cell membrane was measured by the resistance tester, and the resistance of each well was recorded. • 3) After the measurement was completed, the Transwell culture plate was re-incubated. • 4) The TEER value was calculated: […]

Structure (SMILES)	efflux ratio at 2 h, 10 μM	Papp A→B at 2 h, 10 μM [×10⁻⁶ cm/s]	Papp B→A at 2 h, 10 μM [×10⁻⁶ cm/s]
CC[C@@]1(O)C(=O)OCc2c1cc1n(c2=O)Cc2c-1nc1cc3c(cc1c2CNC(=O)C(O)C1CC1)OCO3 (stereo partly drawn) [Compound 14, 2-cyclopropyl-N-(((S)-7-ethyl-7-hydroxy-8,11-dioxo-7,8,11,13-tetrahydro-10H-[1,3]dioxolo[4,5-g]pyrano[3′,4′:6,7]indolizino[1,2-b]quinolin-14-yl)methyl)-2-hydroxyacetamide]	15.2	0.26	3.95
[2H]C1([2H])Oc2cc3nc4c(c(CNC(=O)C(O)C5CC5)c3cc2O1)Cn1c-4cc2c(c1=O)COC(=O)[C@]2(O)CC (stereo partly drawn) [Compound 39, 2-cyclopropyl-N-(((S)-7-ethyl-7-hydroxy-8,11-dioxo-7,8,11,13-tetrahydro-10H-[1,3]dioxolo[4,5-g]pyrano[3′,4′:6,7]indolizino[1,2-b]quinolin-14-yl-2,2-d2)methyl)-2-hydroxyacetamide]	5.9	0.71	4.21
